The source of these data is PMC10418395, “Tetracyclic 1,4-Naphthoquinone Thioglucoside Conjugate U-556 Blocks the Purinergic P2X7 Receptor in Macrophages and Exhibits Anti-Inflammatory Activity In Vivo” (International Journal of Molecular Sciences, 2023).

By inhibition is commonly meant the relative decrease from the control value, in per cent. High values mean strong suppression, low ones little suppression. As usually defined, the Kd is the constant that tells how readily two partners part at equilibrium.

The target in assay [1] is T1, P2X7 receptor (mP2X7R) (Mus musculus, UniProt Q9Z1M0).
T1 construct: gene P2rx7
T1 sequence (Q9Z1M0 1-595): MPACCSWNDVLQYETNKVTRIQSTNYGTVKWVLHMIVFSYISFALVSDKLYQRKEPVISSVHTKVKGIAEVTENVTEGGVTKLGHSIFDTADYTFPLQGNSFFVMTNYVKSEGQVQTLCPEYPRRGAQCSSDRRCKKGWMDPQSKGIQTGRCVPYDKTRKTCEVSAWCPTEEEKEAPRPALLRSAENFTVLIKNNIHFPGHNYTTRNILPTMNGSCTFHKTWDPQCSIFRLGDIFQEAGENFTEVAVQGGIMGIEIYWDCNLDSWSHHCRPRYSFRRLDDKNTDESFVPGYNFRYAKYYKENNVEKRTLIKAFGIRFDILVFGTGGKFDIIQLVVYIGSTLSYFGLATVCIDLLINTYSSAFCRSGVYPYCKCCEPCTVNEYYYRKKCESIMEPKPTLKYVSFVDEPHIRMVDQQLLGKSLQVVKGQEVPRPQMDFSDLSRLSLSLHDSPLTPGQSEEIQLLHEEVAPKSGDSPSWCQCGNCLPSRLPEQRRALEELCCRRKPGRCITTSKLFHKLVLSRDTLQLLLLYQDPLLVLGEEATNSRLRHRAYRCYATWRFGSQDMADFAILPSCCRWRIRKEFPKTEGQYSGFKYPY
The assay can be described thus: ATP/BzATP-induced YO-PRO-1 uptake and Ca2+ influx in RAW […] cells. In kind it is cell-based.

Assay [2] has as its target T1, P2X7 receptor (mP2X7R). The assay can be described thus: BzATP/ATP-induced YO-PRO-1 uptake and Ca2+ influx in RAW […] cells. In kind it is cell-based.
A further assay has as its target T2, P2X7 receptor (hP2X7) (Homo sapiens, UniProt Q99572).
T2 construct: gene P2RX7
T2 sequence (Q99572 47-334): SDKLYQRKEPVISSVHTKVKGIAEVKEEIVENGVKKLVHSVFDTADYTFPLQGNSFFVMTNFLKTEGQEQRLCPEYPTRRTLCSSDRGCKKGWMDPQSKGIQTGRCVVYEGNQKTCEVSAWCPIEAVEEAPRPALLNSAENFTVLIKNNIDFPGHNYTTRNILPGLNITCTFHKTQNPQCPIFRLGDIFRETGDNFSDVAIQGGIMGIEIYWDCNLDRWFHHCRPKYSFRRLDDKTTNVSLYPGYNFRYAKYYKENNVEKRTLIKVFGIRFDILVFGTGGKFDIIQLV
The assay can be described thus: SPR (Biacore […], CM5 chip, Langmuir […]). The class given is binding. For orientation: In SPR one partner is held on a chip, and binding of the other changes the refractive index at the surface.

`Clc1cccc(-c2nnnn2Cc2cccnc2)c1Cl` [A438079] registered an inhibition at 10 µM against P2X7 receptor (mP2X7R) [1] of 48.3%.

At P2X7 receptor (mP2X7R) [2], `Cc1c(C)c(O)c2c(c1O)C(=O)C1=C(S[C@@H]3O[C@H](CO)[C@@H](O)[C@H](O)[C@H]3O1)C2=O` [compound 4] showed an inhibition at 0.1 µM of 52.7%. The same compound showed a Kd on P2X7 receptor (hP2X7) of 13 µM.
